Each block holds one compound with its values, some of them ahead of it.
How the values were obtained:
[1] = target: Serine/threonine-protein kinase Chk2 (Homo sapiens) (UniProt O96017); details: at 10 µM
[2] = target: Mitogen-activated protein kinase kinase kinase kinase 4 (Homo sapiens, UniProt O95819); experiment: Selectivity interaction (KinomeScan (DiscoverX)) EUB0001049a MAP4K4; details: at 1 µM
[3] = target: Serine/threonine-protein kinase 24 (Homo sapiens) (UniProt Q9Y6E0); experiment: Selectivity interaction (ActivX KiNativ screen (kinase selectivity in THP-1 cell lysates)) EUB0000639a STK24; assay type: subcellular; details: lysate, at 0.04 µM
[4] = target: Proto-oncogene tyrosine-protein kinase receptor Ret (Homo sapiens, UniProt P07949)
[5] = target: T1, Interleukin-1 receptor-associated kinase 3 (Homo sapiens) (UniProt Q9Y616); details: at 10 µM
T1 sequence (whole entry): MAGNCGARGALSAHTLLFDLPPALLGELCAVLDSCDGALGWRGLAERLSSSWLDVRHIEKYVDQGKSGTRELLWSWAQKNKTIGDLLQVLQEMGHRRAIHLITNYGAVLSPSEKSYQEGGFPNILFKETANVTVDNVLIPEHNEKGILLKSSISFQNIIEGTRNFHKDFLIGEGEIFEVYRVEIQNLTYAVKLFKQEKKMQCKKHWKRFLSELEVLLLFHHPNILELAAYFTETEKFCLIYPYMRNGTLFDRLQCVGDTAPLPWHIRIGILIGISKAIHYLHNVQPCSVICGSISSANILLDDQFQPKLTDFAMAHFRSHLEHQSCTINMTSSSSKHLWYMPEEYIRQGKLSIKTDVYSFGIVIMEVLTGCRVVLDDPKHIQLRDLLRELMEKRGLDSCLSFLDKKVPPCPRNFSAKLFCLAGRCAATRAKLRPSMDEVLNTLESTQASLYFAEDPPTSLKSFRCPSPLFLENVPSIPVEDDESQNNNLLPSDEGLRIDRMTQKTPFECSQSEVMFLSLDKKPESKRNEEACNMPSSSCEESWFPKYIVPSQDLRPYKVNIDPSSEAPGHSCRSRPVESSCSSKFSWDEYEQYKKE

[6] = target: T2, Dual specificity mitogen-activated protein kinase kinase 5 (Homo sapiens) (UniProt Q13163); experiment: Selectivity interaction (KinomeScan (DiscoverX)) EUB0001079a MAP2K5; details: at 1 µM
T2 sequence (whole entry): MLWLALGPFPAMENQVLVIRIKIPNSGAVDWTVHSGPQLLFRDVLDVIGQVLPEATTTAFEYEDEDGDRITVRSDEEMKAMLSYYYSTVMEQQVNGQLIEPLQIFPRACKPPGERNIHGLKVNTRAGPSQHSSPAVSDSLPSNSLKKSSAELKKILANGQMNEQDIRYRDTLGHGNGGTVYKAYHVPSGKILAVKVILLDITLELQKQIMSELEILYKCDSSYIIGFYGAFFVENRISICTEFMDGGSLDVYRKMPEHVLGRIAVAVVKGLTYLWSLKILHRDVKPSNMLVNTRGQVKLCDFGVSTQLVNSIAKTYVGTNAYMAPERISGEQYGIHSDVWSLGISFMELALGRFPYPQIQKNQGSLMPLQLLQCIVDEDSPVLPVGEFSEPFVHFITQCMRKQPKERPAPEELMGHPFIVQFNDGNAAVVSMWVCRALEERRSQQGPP

[7] = target: Non-receptor tyrosine-protein kinase TYK2 (Homo sapiens, UniProt P29597); experiment: Selectivity interaction (KinomeScan (DiscoverX)) EUB0001079a TYK2; details: at 1 µM
[8] = target: T3, Serine/threonine-protein kinase Nek11 (Homo sapiens) (UniProt Q8NG66); experiment: Selectivity interaction (ProQinase) EUB0000171b NEK11
T3 sequence (whole entry): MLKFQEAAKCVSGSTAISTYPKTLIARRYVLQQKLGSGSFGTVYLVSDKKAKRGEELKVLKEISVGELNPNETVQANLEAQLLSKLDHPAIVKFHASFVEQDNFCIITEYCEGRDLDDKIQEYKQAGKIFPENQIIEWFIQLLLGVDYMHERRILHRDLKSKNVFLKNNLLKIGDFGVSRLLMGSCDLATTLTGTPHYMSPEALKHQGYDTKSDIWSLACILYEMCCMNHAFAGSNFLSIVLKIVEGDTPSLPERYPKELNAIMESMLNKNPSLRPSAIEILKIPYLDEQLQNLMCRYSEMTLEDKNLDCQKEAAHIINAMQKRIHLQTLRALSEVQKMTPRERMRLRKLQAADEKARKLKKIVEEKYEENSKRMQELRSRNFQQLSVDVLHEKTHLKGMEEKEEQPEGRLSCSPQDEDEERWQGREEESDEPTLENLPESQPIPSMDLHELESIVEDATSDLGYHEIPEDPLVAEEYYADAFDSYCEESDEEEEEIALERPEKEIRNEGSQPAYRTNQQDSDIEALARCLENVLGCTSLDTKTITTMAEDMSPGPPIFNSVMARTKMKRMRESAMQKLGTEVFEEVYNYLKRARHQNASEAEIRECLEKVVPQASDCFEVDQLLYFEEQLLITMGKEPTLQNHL

[9] = target: Serine/threonine-protein kinase 26 (Homo sapiens, UniProt Q9P289); experiment: Selectivity interaction (ProQinase) EUB0000171b STK26
[10] = target: Mitogen-activated protein kinase kinase kinase 21 (Homo sapiens) (UniProt Q5TCX8); experiment: Selectivity interaction (ProQinase) EUB0000171b MAP3K21
[11] = target: T3, Serine/threonine-protein kinase Nek11 (Homo sapiens); experiment: Selectivity interaction (KinomeScan (DiscoverX)) EUB0000092b NEK11; details: at 10 µM
[12] = target: Ribosomal protein S6 kinase alpha-5 (Homo sapiens) (UniProt O75582); experiment: Selectivity interaction (KinomeScan (DiscoverX)) EUB0000045b RPS6KA5; details: at 10 µM
[13] = target: Tyrosine-protein kinase SYK (Homo sapiens, UniProt P43405); experiment: Selectivity interaction (ActivX KiNativ screen (ex vivo kinase selectivity in human PBMCs)) EUB0001619a SYK; assay type: cell-based; details: PBMC, at 1 µM
[14] = target: Calcium/calmodulin-dependent protein kinase type II subunit alpha (Homo sapiens, UniProt Q9UQM7); experiment: Selectivity interaction (KinomeScan (DiscoverX)) EUB0000618a CAMK2A; details: at 10 µM
[15] = target: Dual specificity protein kinase CLK1 (Homo sapiens, UniProt P49759); experiment: Selectivity interaction (KinomeScan (DiscoverX)) EUB0000618a CLK1; details: at 10 µM
[16] = target: Protein kinase C beta type (Homo sapiens, UniProt P05771); experiment: Selectivity interaction (SelectScreen profiling (Invitrogen)) EUB0000607a PRKCB; details: at 2 µM
[17] = target: Serine/threonine-protein kinase NIM1 (Homo sapiens, UniProt Q8IY84); experiment: Selectivity interaction (KinomeScan (DiscoverX)) EUB0000607a NIM1K; details: at 10 µM
[18] = target: Cyclin-dependent kinase 17 (Homo sapiens) (UniProt Q00537); experiment: Selectivity interaction (KinomeScan (DiscoverX)) EUB0000607a CDK17; details: at 10 µM
Cyclin-dependent kinase 17 (Homo sapiens), sequence (Q00537 whole entry, looked up): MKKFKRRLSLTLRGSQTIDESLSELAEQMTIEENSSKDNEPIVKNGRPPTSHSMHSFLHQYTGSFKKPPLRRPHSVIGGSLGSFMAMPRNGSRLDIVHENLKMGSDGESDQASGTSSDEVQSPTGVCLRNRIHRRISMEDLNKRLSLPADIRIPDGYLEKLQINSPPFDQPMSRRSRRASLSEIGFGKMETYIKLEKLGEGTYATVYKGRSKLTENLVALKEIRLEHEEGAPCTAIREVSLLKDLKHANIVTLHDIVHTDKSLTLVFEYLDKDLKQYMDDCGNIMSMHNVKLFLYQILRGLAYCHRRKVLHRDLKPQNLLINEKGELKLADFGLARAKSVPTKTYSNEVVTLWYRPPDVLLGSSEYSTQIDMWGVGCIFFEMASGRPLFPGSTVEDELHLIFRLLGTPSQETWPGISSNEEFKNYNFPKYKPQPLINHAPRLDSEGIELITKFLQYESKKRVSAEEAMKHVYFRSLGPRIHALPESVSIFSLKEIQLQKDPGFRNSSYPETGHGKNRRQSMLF

Serine/threonine-protein kinase 26, sequence (Q9P289 2-416 limits assumed): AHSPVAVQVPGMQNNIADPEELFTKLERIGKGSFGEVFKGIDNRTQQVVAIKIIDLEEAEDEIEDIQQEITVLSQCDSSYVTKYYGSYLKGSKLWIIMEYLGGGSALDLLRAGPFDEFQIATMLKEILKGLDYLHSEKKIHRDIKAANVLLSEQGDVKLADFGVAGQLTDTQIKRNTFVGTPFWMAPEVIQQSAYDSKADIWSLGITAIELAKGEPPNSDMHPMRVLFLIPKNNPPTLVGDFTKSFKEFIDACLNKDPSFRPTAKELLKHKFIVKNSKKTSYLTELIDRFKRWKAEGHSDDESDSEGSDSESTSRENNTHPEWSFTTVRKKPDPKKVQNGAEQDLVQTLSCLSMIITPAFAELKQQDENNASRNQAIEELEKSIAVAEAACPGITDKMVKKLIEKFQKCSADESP
Mitogen-activated protein kinase kinase kinase 21 (Homo sapiens), sequence (Q5TCX8 whole entry): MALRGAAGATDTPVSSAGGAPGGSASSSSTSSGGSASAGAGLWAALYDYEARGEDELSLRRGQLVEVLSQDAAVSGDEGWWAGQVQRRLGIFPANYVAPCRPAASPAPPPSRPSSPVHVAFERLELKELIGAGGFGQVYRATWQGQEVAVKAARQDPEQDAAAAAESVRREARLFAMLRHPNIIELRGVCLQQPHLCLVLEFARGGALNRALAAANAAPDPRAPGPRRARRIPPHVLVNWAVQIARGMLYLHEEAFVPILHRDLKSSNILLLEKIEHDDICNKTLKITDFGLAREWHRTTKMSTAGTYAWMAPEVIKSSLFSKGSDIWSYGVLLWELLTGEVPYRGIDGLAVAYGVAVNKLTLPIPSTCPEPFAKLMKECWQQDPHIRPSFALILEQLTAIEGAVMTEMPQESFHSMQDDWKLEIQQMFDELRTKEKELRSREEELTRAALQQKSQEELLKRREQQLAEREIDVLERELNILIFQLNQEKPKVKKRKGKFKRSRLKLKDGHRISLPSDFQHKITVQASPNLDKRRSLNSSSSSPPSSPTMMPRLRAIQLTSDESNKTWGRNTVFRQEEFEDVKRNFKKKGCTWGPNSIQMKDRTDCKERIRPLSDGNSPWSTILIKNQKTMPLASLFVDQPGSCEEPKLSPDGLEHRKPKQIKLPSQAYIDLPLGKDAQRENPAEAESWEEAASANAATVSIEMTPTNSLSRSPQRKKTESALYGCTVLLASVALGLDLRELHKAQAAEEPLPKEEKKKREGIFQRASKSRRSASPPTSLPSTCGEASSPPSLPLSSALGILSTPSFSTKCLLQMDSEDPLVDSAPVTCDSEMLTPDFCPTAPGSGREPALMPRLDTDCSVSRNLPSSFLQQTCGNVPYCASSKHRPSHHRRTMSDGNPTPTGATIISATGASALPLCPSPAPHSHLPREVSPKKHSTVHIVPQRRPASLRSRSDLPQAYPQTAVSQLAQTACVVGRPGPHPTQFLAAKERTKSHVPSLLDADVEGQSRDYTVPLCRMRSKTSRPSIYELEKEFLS
Ribosomal protein S6 kinase alpha-5 (Homo sapiens), sequence (O75582 whole entry, looked up): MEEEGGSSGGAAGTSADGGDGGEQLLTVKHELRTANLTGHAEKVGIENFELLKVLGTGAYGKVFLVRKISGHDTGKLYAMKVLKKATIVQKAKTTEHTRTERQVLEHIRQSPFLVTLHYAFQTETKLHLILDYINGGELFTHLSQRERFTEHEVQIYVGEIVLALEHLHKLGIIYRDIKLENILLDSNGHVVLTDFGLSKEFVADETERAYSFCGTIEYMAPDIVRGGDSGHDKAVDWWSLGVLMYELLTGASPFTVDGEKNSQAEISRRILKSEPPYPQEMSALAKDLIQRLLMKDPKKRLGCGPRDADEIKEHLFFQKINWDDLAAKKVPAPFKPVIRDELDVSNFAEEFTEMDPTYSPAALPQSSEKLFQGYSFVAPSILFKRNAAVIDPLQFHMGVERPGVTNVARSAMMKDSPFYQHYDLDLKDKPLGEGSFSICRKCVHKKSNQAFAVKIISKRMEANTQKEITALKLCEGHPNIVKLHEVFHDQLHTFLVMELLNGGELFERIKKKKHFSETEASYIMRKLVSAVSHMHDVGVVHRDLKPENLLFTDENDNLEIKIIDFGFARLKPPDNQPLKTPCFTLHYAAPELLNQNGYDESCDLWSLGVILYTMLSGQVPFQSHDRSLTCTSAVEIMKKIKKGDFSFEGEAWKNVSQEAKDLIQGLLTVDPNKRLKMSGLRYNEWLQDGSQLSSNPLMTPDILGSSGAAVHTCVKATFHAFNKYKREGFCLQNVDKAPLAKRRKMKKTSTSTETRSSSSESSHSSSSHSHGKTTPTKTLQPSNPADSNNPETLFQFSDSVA
Mitogen-activated protein kinase kinase kinase kinase 4, sequence (O95819 2-1239 limits assumed): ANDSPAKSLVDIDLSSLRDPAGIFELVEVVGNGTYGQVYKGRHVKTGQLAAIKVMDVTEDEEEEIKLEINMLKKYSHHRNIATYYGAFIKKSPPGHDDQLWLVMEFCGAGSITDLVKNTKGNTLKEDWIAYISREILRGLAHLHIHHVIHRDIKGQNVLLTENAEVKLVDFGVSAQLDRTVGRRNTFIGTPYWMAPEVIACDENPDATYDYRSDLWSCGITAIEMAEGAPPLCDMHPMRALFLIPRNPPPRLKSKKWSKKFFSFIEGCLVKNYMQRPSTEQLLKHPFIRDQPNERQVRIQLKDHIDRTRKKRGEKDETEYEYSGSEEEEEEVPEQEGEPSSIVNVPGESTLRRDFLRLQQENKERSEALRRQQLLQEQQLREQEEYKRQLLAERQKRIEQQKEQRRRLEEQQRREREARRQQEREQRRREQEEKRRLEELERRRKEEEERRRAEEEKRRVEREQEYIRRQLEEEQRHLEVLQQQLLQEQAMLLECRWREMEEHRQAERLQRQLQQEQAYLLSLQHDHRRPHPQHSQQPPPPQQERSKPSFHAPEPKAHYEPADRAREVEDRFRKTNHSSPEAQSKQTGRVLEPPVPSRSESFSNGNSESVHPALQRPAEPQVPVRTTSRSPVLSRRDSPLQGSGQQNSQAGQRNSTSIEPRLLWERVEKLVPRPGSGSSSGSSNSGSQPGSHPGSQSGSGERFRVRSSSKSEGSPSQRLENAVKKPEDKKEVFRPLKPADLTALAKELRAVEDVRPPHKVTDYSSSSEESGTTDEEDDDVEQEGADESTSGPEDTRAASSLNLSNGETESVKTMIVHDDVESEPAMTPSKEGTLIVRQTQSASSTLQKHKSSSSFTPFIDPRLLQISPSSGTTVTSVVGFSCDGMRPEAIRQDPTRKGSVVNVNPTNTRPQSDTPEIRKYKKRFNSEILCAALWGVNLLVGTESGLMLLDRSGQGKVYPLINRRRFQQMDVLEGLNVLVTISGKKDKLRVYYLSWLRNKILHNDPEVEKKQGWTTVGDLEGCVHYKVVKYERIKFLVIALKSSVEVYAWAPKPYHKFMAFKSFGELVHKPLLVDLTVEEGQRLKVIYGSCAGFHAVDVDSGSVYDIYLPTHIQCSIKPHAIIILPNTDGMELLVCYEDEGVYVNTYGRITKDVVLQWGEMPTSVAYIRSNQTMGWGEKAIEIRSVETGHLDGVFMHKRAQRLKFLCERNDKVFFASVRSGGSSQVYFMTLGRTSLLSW
Protein kinase C beta type, sequence (P05771 2-671 limits assumed): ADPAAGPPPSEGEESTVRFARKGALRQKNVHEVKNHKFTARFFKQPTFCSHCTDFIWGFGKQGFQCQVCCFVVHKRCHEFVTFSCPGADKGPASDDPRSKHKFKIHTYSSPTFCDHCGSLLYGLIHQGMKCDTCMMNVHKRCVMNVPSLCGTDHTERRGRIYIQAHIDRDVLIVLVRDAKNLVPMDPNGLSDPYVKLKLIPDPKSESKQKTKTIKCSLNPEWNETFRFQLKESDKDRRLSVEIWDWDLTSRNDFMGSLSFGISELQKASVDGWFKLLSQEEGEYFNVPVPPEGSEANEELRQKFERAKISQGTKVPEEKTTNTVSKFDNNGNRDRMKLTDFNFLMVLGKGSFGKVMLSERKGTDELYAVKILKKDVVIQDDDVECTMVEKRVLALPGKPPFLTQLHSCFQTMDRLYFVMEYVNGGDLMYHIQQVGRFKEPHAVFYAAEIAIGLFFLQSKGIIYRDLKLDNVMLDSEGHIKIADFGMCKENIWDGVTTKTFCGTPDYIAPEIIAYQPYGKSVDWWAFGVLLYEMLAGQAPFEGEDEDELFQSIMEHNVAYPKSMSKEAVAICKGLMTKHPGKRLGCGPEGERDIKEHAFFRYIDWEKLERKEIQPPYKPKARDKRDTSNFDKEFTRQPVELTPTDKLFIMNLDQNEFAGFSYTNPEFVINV

Structure (SMILES): Cc1cc([C@@H](C)Nc2ccccc2C(=O)O)c2nc(N3CCOCC3)cc(=O)n2c1 [AZD-6482]
% of control [1]: 100%

Structure (SMILES): COc1cc(Nc2nc(C)cc(-c3cnn4nc(OC)ccc34)n2)cc(C(F)(F)F)c1
% of control [2]: 99%

% of inhibition [3]: 13.3%
Structure (SMILES): CC[C@@H]1[C@H](F)C(=O)N[C@@H]1COc1nccc2cc(C(N)=O)c(OC)cc12 [ZIMLOVISERTIB]

IC50 [4]: > 10 µM
Structure (SMILES): CCc1cccc(CC)c1NC(=O)c1nn(C)c2c1CCc1cnc(Nc3ccc(C(=O)NC4CCN(C)CC4)cc3OC(F)(F)F)nc1-2

% of control [5]: 100%
Structure (SMILES): CCN(CC)CCCCNc1ncc2cc(-c3cc(OC)cc(OC)c3)c(NC(=O)NC(C)(C)C)nc2n1

Structure (SMILES): Nc1cnc(N2CCc3cc(S(=O)(=O)Nc4c(F)cc(Cl)cc4F)cc(N4CCCC4=O)c32)nc1 [TP-020n]
% of control [6]: 84%
% of control [7]: 100%

% of control ([8]; at 1 µM): 103%
% of control ([8]; at 5 µM): 87%
% of control ([9]; at 1 µM): 94%
% of control ([9]; at 5 µM): 97%
% of control ([10]; at 1 µM): 81%
% of control ([10]; at 5 µM): 59%
Structure (SMILES): C=CC(=O)Nc1cccc(C(=O)Nc2ccc(Nc3cc(-c4[nH]c(SC)nc4C)ccn3)cc2)c1

Structure (SMILES): CCC(=O)N1CCN(c2ccc(-n3c(=O)ccc4cnc5ccc(-c6cnc7ccccc7c6)cc5c43)cc2C(F)(F)F)CC1
% of control [11]: 65%

Structure (SMILES): C=CC(=O)Nc1cc(-n2c(=O)ccc3cnc4ccc(-c5ccc(NS(C)(=O)=O)cc5)cc4c32)ccc1C
% of control [12]: 80%

Structure (SMILES): N#Cc1cccc(-c2c[nH]c3ncnc(N4CCOCC4)c23)c1
% of inhibition [13]: 1%

Structure (SMILES): O[C@H]1CC[C@H](Nc2ncc3nc(Nc4c(F)cc(F)cc4F)n([C@H]4CCOC4)c3n2)CC1
% of control [14]: 95%
% of control [15]: 79%

Structure (SMILES): CNC(=O)Nc1ccc(-c2nc(N3CC4CCC(C3)O4)c3cnn(C4CCC5(CC4)OCCO5)c3n2)cc1
% of inhibition [16]: 11%
% of control [17]: 100%
% of control [18]: 100%
